Series [1] can be described thus: Inhibition of human ABCB1 expressed in KBV1 cells assessed as potentiation of doxorubicin-induced cytotoxicity by measuring doxorubicin IC50 at 50 nM after 72 hrs by MTT assay (Rvb = 5.07 +/- 0.19 uM). A general note: Tetrazolium dyes change colour on reduction, which living cells bring about.
The nature of series [2]: Inhibition of human ABCB1 expressed in KBV1 cells assessed as potentiation of doxorubicin-induced cytotoxicity by measuring doxorubicin IC50 at 200 nM after 72 hrs by MTT assay (Rvb = 5.07 +/- 0.19 uM).
The nature of series [3]: Inhibition of human ABCB1 expressed in KBV1 cells assessed as potentiation of doxorubicin-induced cytotoxicity by measuring doxorubicin IC50 at 100 nM after 72 hrs by MTT assay (Rvb = 5.07 +/- 0.19 uM).
The nature of series [4]: Inhibition of human ABCB1 expressed in KBV1 cells assessed as potentiation of doxorubicin-induced cytotoxicity by measuring doxorubicin IC50 at 500 nM after 72 hrs by MTT assay (Rvb = 5.07 +/- 0.19 uM).
Series [5] in a line: Inhibition of human ABCB1 expressed in KBV1 cells assessed as potentiation of colchicine-induced cytotoxicity by measuring colchicine IC50 at 500 nM after 72 hrs by MTT assay (Rvb = 487.57 +/- 30.54 nM).
Series [6] in a line: Inhibition of human ABCB1 expressed in KBV1 cells assessed as potentiation of colchicine-induced cytotoxicity by measuring colchicine IC50 at 200 nM after 72 hrs by MTT assay (Rvb = 487.57 +/- 30.54 nM).
Series [7] is described as follows: Inhibition of human ABCC1 transfected in HEK293 cells assessed as potentiation of etoposide-induced cytotoxicity by measuring etoposide IC50 at 500 nM after 72 hrs by CCK8 assay (Rvb = 38.54 +/- 5.62 nM).
Series [8] in a line: Inhibition of human ABCB1 expressed in KBV1 cells assessed as potentiation of colchicine-induced cytotoxicity by measuring colchicine IC50 at 100 nM after 72 hrs by MTT assay (Rvb = 487.57 +/- 30.54 nM).
A short description of series [9]: Inhibition of human ABCB1 expressed in KBV1 cells assessed as potentiation of vincristine-induced cytotoxicity by measuring vincristine IC50 at 50 nM after 72 hrs by MTT assay (Rvb = 277.68 +/- 56.61 nM).
Series [10] in a line: Inhibition of human ABCB1 expressed in KBV1 cells assessed as potentiation of vincristine-induced cytotoxicity by measuring vincristine IC50 at 100 nM after 72 hrs by MTT assay (Rvb = 277.68 +/- 56.61 nM).
The nature of series [11]: Inhibition of human ABCB1 expressed in KBV1 cells assessed as potentiation of vincristine-induced cytotoxicity by measuring vincristine IC50 at 200 nM after 72 hrs by MTT assay (Rvb = 277.68 +/- 56.61 nM).
Series [12] is described as follows: Inhibition of human ABCB1 expressed in KBV1 cells assessed as potentiation of vincristine-induced cytotoxicity by measuring vincristine IC50 at 500 nM after 72 hrs by MTT assay (Rvb = 277.68 +/- 56.61 nM).
A short description of series [13]: Inhibition of human ABCB1 expressed in NCI-ADR-RES cells assessed as potentiation of doxorubicin-induced cytotoxicity by measuring doxorubicin IC50 at 50 nM after 72 hrs by MTT assay (Rvb = 5.54 +/- 0.60 uM).
The nature of series [14]: Inhibition of human ABCB1 expressed in NCI-ADR-RES cells assessed as potentiation of doxorubicin-induced cytotoxicity by measuring doxorubicin IC50 at 500 nM after 72 hrs by MTT assay (Rvb = 5.54 +/- 0.60 uM).
Series [15] in a line: Inhibition of human ABCB1 expressed in NCI-ADR-RES cells assessed as potentiation of doxorubicin-induced cytotoxicity by measuring doxorubicin IC50 at 100 nM after 72 hrs by MTT assay (Rvb = 5.54 +/- 0.60 uM).
The nature of series [16]: Inhibition of human ABCB1 transfected in HEK293 cells assessed as potentiation of doxorubicin-induced cytotoxicity by measuring doxorubicin IC50 at 50 nM after 72 hrs by CCK8 assay (Rvb = 504.65 +/- 44.94 nM).
A short description of series [17]: Inhibition of human ABCB1 transfected in HEK293 cells assessed as potentiation of doxorubicin-induced cytotoxicity by measuring doxorubicin IC50 at 100 nM after 72 hrs by CCK8 assay (Rvb = 504.65 +/- 44.94 nM).
The nature of series [18]: Inhibition of human ABCB1 expressed in NCI-ADR-RES cells assessed as potentiation of doxorubicin-induced cytotoxicity by measuring doxorubicin IC50 at 200 nM after 72 hrs by MTT assay (Rvb = 5.54 +/- 0.60 uM).
Series [19] is described as follows: Inhibition of human ABCB1 transfected in HEK293 cells assessed as potentiation of doxorubicin-induced cytotoxicity by measuring doxorubicin IC50 at 200 nM after 72 hrs by CCK8 assay (Rvb = 504.65 +/- 44.94 nM).
A short description of series [20]: Inhibition of human ABCB1 expressed in NCI-ADR-RES cells assessed as potentiation of colchicine-induced cytotoxicity by measuring colchicine IC50 at 50 nM after 72 hrs by MTT assay (Rvb = 1607.50 +/- 497.42 nM).
The nature of series [21]: Inhibition of human ABCB1 expressed in NCI-ADR-RES cells assessed as potentiation of colchicine-induced cytotoxicity by measuring colchicine IC50 at 100 nM after 72 hrs by MTT assay (Rvb = 1607.50 +/- 497.42 nM).
Series [22] can be described thus: Inhibition of human ABCB1 expressed in NCI-ADR-RES cells assessed as potentiation of colchicine-induced cytotoxicity by measuring colchicine IC50 at 500 nM after 72 hrs by MTT assay (Rvb = 1607.50 +/- 497.42 nM).
Series [23] in a line: Inhibition of human ABCB1 expressed in NCI-ADR-RES cells assessed as potentiation of colchicine-induced cytotoxicity by measuring colchicine IC50 at 200 nM after 72 hrs by MTT assay (Rvb = 1607.50 +/- 497.42 nM).
Series [24] is described as follows: Inhibition of human ABCB1 expressed in NCI-ADR-RES cells assessed as potentiation of vincristine-induced cytotoxicity by measuring vincristine IC50 at 50 nM after 72 hrs by MTT assay (Rvb = 3714.80 +/- 383.58 nM).
The nature of series [25]: Inhibition of human ABCB1 expressed in NCI-ADR-RES cells assessed as potentiation of vincristine-induced cytotoxicity by measuring vincristine IC50 at 100 nM after 72 hrs by MTT assay (Rvb = 3714.80 +/- 383.58 nM).
Series [26] is described as follows: Inhibition of human ABCB1 expressed in NCI-ADR-RES cells assessed as potentiation of vincristine-induced cytotoxicity by measuring vincristine IC50 at 500 nM after 72 hrs by MTT assay (Rvb = 3714.80 +/- 383.58 nM).
Series [27] in a line: Inhibition of human ABCB1 expressed in NCI-ADR-RES cells assessed as potentiation of vincristine-induced cytotoxicity by measuring vincristine IC50 at 200 nM after 72 hrs by MTT assay (Rvb = 3714.80 +/- 383.58 nM).
Series [28] can be described thus: Inhibition of human ABCB1 expressed in KBV1 cells assessed as potentiation of doxorubicin-induced cytotoxicity by measuring doxorubicin IC50 at 1000 nM after 72 hrs by MTT assay (Rvb = 5.07 +/- 0.19 uM).
A short description of series [29]: Inhibition of human ABCB1 expressed in KBV1 cells assessed as potentiation of vincristine-induced cytotoxicity by measuring vincristine IC50 at 1000 nM after 72 hrs by MTT assay (Rvb = 277.68 +/- 56.61 nM).
The nature of series [30]: Inhibition of human ABCB1 expressed in NCI-ADR-RES cells assessed as potentiation of doxorubicin-induced cytotoxicity by measuring doxorubicin IC50 at 1000 nM after 72 hrs by MTT assay (Rvb = 5.54 +/- 0.60 uM).
A short description of series [31]: Inhibition of human ABCB1 transfected in HEK293 cells assessed as potentiation of doxorubicin-induced cytotoxicity by measuring doxorubicin IC50 at 1000 nM after 72 hrs by CCK8 assay (Rvb = 504.65 +/- 44.94 nM).
Series [32] can be described thus: Inhibition of human ABCB1 expressed in NCI-ADR-RES cells assessed as potentiation of colchicine-induced cytotoxicity by measuring colchicine IC50 at 1000 nM after 72 hrs by MTT assay (Rvb = 1607.50 +/- 497.42 nM).
Series [33] is described as follows: Inhibition of human ABCB1 expressed in NCI-ADR-RES cells assessed as potentiation of vincristine-induced cytotoxicity by measuring vincristine IC50 at 1000 nM after 72 hrs by MTT assay (Rvb = 3714.80 +/- 383.58 nM).

Turning to `COc1ccc2cc1Oc1ccc(cc1)C[C@H]1c3cc(c(OC)cc3CCN1C)Oc1c(OC)c(OC)c(OC)c3c1[C@H](C2)N(C)CC3` [CHEBI:5677], the IC50 in series [1] is 1420 nM; in series [2], 280 nM; in series [3], 700 nM; in series [4], 100 nM; in series [5], 32 nM; in series [6], 118 nM. Also, the 50% inhibitory concentration (IC50) was determined as 38300 nM in [7]; 188 nM in [8]; 205 nM in series [9]; 100 nM in [10]; 21 nM in series [11]; 1.6 nM in series [12]. Moreover, the IC50 was 2810 nM in series [13]; 230 nM in series [14]; 1310 nM in series [15]; 109 nM in series [16]; 76 nM in [17]; 550 nM in [18]. For the same molecule, the half-inhibitory concentration (IC50) turned out to be 44 nM in [19]; 1010 nM in [20]; 571 nM in series [21]; 79 nM in series [22]; 224 nM in [23]; 3220 nM in series [24]. Also, the IC50 in [25] worked out at 2660 nM; in series [26] it was 115 nM; in series [27], 970 nM.
Consider `COc1cc2c(cc1OC)CN(CCc1ccc(NC(=O)c3cc(OC)c(OC)cc3NC(=O)c3cnc4ccccc4c3)cc1)CC2`, for which the IC50 stood at 70 nM in series [28]; 0.66 nM in [29]; 240 nM in series [30]; 25 nM in series [31]; 25 nM in series [32]; 19 nM in [33].

Broadly, the IC50 is the midpoint of a concentration-inhibition curve.

These data come from BindingDB's records for doi:10.1021/acs.jnatprod.6b00597 (Chang Gung Memorial Hospital, 2016).
